Source: patent US20100298141A1, “SUBSTITUTED PYRIDINE N-OXIDE HERBICIDES” (E. I. DU PONT DE NEMOURS AND COMPANY, priority 2007, published 2010)

Assays:
field bindweed = assay: Test F preemergence test; assay type: in vivo, Convolvulus arvensis; details: scale 0 to 100
Procedure, shortened: (§1)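 Preemergence application to planted seeds, or postemergence to sugarcane plants; compound in non-phytotoxic solvent mix plus surfactant. Greenhouse, 14-21 days. Visual rating vs. controls.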

barnyardgrass [1] = assay: Test F preemergence test; assay type: in vivo, Echinochloa crus-galli; details: scale 0 to 100
Procedure, shortened: as §1

broadleaf signalgrass = assay: Test F preemergence test; assay type: in vivo, Brachiaria platyphylla; details: scale 0 to 100
Procedure, shortened: as §1

mustard = assay: Test F preemergence test; assay type: in vivo, Brassica nigra; details: scale 0 to 100
Procedure, shortened: as §1

barnyardgrass [2] = assay: Test A pre-/postemergence greenhouse test; assay type: in vivo, Echinochloa crus-galli; details: for Barnyardgrass plant response rating: 0 to 100 scale
Procedure, shortened: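 Sowing in loam/sand; same-day pre (directed soil spray) and post (foliar, 1–2 leaf, 2–10 cm) treatment with surfactant-containing non-phytotoxic solvent formulation; ~10 days in greenhouse; eye-scored injury against untreated plants.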

dallisgrass = assay: Test F preemergence test; assay type: in vivo, Paspalum dilatatum; details: scale 0 to 100
Procedure, shortened: as §1

kochia = assay: Test C pre-/postemergence test; assay type: in vivo, Kochia scoparia; details: for Plant response rating, Kochia: scale 0 to 100, 0 no effect, 100 complete control
Procedure, shortened: (§2)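 Seeds were planted and treated preemergence with test chemical in a non-phytotoxic solvent mixture containing surfactant. Postemergence applications of the same formulation went onto plants 2 to 18 cm tall (1- to 4-leaf stage). A dash marks no test result.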

green foxtail = assay: Test F preemergence test; assay type: in vivo, Setaria viridis; details: scale 0 to 100
Procedure, shortened: as §1

common mallow = assay: Test F preemergence test; assay type: in vivo, Malva sylvestris; details: Preemergence, scale 0 to 100
Text: (§3) Seeds of plant species selected from bermudagrass (Cynodon dactylon), Surinam grass (Brachiaria decumbens), large crabgrass (Digitaria sanguinalis), green foxtail (Setaria viridis), goosegrass (Eleusine indica), johnsongrass (Sorghum halepense), kochia (Kochia scoparia), pitted morningglory (Ipomoea lacunosa), purple nutsedge (Cyperus rotundus), common ragweed (Ambrosia elation), mustard (Brassica nigra), guineagrass (Panicum maximum), […] (Paspalum dilatatum), barnyardgrass (Echinochloa crus-galli), southern sandbur (Cenchrus echinatus), common sowthistle (Sonchus oleraceous), prickly […] spinosa), Italian ryegrass (Lolium multiflorum), common purslane (Portulaca oleracea), broadleaf signalgrass (Brachiaria platyphylla), common groundsel (Senecio vulgaris), common chickweed (Stellaria media), Virginia dayflower (Commelina virginica), annual bluegrass (Poa annua), naked crabgrass (Digitaria nuda), […] cochinchinensis), quackgrass (Elytrigia repens), Canada horseweed (Conyza canadensis), field bindweed (Convolvulus arvensis), […] (Bidens bipinnata), common mallow (Malva sylvestris), Russian thistle (Salsola kali), and sugarcane (Saccharum officinarum) were planted and treated preemergence with test chemicals formulated in a non-phytotoxic solvent mixture which included a surfactant. At a different time, sugarcane was treated with postemergence applications of some of the test chemicals formulated in the same manner. Plants were approximately 3- to 4-leaf stage for the postemergence treatments. Treated plants and controls were maintained in a greenhouse for 14 to 21 days, after which time all species were compared to controls and visually evaluated. […] A dash (-) response means no test result.

Virginia dayflower = assay: Test F preemergence test; assay type: in vivo, Commelina virginica; details: Preemergence, scale 0 to 100
Text: as §3

velvetleaf = assay: Test C pre-/postemergence test; assay type: in vivo, Abutilon theophrasti; details: Postemergence; for Plant response rating, Velvetleaf: scale 0 to 100, 0 no effect, 100 complete control
Procedure, shortened: as §2

annual bluegrass = assay: Test F preemergence test; assay type: in vivo, Poa annua; details: scale 0 to 100
Procedure, shortened: as §1

itchgrass = assay: Test F preemergence test; assay type: in vivo, Rottboellia cochinchinensis; details: scale 0 to 100
Procedure, shortened: as §1

cocklebur = assay: Test C pre-/postemergence test; assay type: in vivo, Xanthium strumarium; details: for Plant response rating, Cocklebur: scale 0 to 100, 0 no effect, 100 complete control
Procedure, shortened: as §2

[3] = 31 g ai/ha, Preemergence, scale 0 to 100
[4] = 62 g ai/ha, preemergence, scale 0 (no effect) to 100 (complete control)
[5] = preemergence, 125 g ai/ha, scale 0 (no effect) to 100 (complete control)

CC(c1c(C(F)(F)F)nn(C)c1OC(F)F)S(=O)(=O)c1cccc[n+]1[O-] (stereo not shown) [Compound 5]
20: Plant response rating, Bluegrass (annual bluegrass; Preemergence, 16 g ai/ha)
100: Barnyardgrass plant response rating (barnyardgrass [1]; 62 g ai/ha, Preemergence) | Kochia plant response rating (kochia; [4]) | Plant response rating (0 to 100), Kochia (kochia; Preemergence, 250 g ai/ha) | Kochia plant response rating (kochia; [5]) | Dayflower plant response rating (Virginia dayflower; 62 g ai/ha)
90: Plant response rating, Barnyardgrass (barnyardgrass [2]; Preemergence, 500 g ai/ha, 0 to 100 scale where 0 is no effect and 100 is complete control) | Foxtail, Green plant response rating (green foxtail; 62 g ai/ha, Preemergence) | Mallow plant response rating (common mallow; 62 g ai/ha) | Plant response rating, Dayflower (Virginia dayflower; 31 g ai/ha) | Itchgrass plant response rating (itchgrass; 62 g ai/ha, Preemergence)
85: Black Mustard plant response rating (mustard; 62 g ai/ha, Preemergence)
98: Plant response rating, Barnyardgrass (barnyardgrass [1]; Preemergence, 31 g ai/ha) | Dallisgrass plant response rating (dallisgrass; 62 g ai/ha, Preemergence)
5: Plant response rating, Velvetleaf (velvetleaf; 125 g ai/ha)
70: Plant response rating, Barnyardgrass (barnyardgrass [1]; 8 g ai/ha, preemergence) | Barnyardgrass plant response rating (barnyardgrass [2]; Preemergence, 125 g ai/ha, 0 no effect, 100 complete control) | Plant response rating, Foxtail, Green (green foxtail; Preemergence, 31 g ai/ha)
35: Plant response rating, Signalgrass (broadleaf signalgrass; Preemergence, 31 g ai/ha) | Plant response rating, Black Mustard (mustard; Preemergence, 16 g ai/ha) | Plant response rating, Itchgrass (itchgrass; Preemergence, 31 g ai/ha)
80: Barnyardgrass plant response rating (barnyardgrass [2]; Postemergence, 125 g ai/ha, 0 is no effect, 100 is complete control) | Barnyardgrass plant response rating (barnyardgrass [2]; Postemergence, 500 g ai/ha, 0 is no effect, 100 is complete control) | Kochia plant response rating (kochia; [3])
50: Plant response rating, Velvetleaf (velvetleaf; 250 g ai/ha)
65: Plant response rating, Dallisgrass (dallisgrass; Preemergence, 16 g ai/ha) | Plant response rating, Dayflower (Virginia dayflower; 16 g ai/ha)
10: Plant response rating, Itchgrass (itchgrass; 8 g ai/ha, preemergence) | Plant response rating, Cocklebur (cocklebur; Postemergence, 250 g ai/ha)
30: Plant response rating, Signalgrass (broadleaf signalgrass; 16 g ai/ha, preemergence) | Plant response rating, Foxtail, Green (green foxtail; Preemergence, 16 g ai/ha)
75: Plant response rating, Barnyardgrass (barnyardgrass [1]; Preemergence, 16 g ai/ha) | Signalgrass plant response rating (broadleaf signalgrass; 62 g ai/ha, Preemergence) | Plant response rating, Black Mustard (mustard; Preemergence, 31 g ai/ha) | Plant response rating, Dallisgrass (dallisgrass; Preemergence, 31 g ai/ha) | Bluegrass plant response rating (annual bluegrass; 62 g ai/ha, Preemergence) | Plant response rating, Bluegrass (annual bluegrass; Preemergence, 31 g ai/ha)
0: Plant response rating, Field Bindweed (field bindweed; 8 g ai/ha, preemergence) | Field Bindweed plant response rating (field bindweed; 62 g ai/ha, Preemergence) | Plant response rating, Field Bindweed (field bindweed; Preemergence, 16 g ai/ha) | Plant response rating, Field Bindweed (field bindweed; Preemergence, 31 g ai/ha) | Plant response rating, Signalgrass (broadleaf signalgrass; 8 g ai/ha, preemergence) | Plant response rating, Black Mustard (mustard; 8 g ai/ha, preemergence) | Plant response rating, Dallisgrass (dallisgrass; 8 g ai/ha, preemergence) | Plant response rating (0 to 100), Kochia (kochia; Postemergence, 31 g ai/ha) | Plant response rating, Kochia (kochia; Postemergence, 62 g ai/ha) | Plant response rating, Kochia (kochia; Postemergence, 125 g ai/ha) | Plant response rating, Kochia (kochia; Postemergence, 250 g ai/ha) | Plant response rating, Foxtail, Green (green foxtail; 8 g ai/ha, preemergence) | Plant response rating (0 to 100), Velvetleaf (velvetleaf; 31 g ai/ha) | Plant response rating (0 to 100), Velvetleaf (velvetleaf; 62 g ai/ha) | Plant response rating, Bluegrass (annual bluegrass; 8 g ai/ha, preemergence) | Cocklebur plant response rating (cocklebur; [3]) | Cocklebur plant response rating (cocklebur; [4]) | Plant response rating (0 to 100), Cocklebur (cocklebur; Postemergence, 31 g ai/ha) | Plant response rating, Cocklebur (cocklebur; Postemergence, 62 g ai/ha) | Plant response rating, Cocklebur (cocklebur; Postemergence, 125 g ai/ha) | Plant response rating (0 to 100), Cocklebur (cocklebur; Preemergence, 250 g ai/ha) | Cocklebur plant response rating (cocklebur; [5])
25: Plant response rating, Mallow (common mallow; 16 g ai/ha) | Plant response rating, Itchgrass (itchgrass; Preemergence, 16 g ai/ha)
